Results from US20190216956A1, “COMPOSITIONS FOR RADIOTHERAPY AND USES THEREOF” (priority 2016, published 2019).
“And” between values parts separate entries of the source, which are not always exact repeats. Identical values can stand only once.

Assays:
[1] = system: NCI-28H cells; test: Cytotoxicity assay (MTS) of NCI-28H cells: doxorubicin, cisplatin, paclitaxel, talc, talc bound to drugs (Example 21); type: cell-based; details: for Average reading: cells + cisplatin / % survival from untreated cells (cells + cisplatin) / % survival from untreated by DOX cells / AVERAGE: cells + DOX: NCI-28H cells; for Average reading: cells + cisplatin / AVERAGE: cells + DOX: absorbance 490 nm
Experimental: Read absorbance (MTS assay) and calculate cells survival rate. Compare survival rate between each formulation.
1. Set up 3 cytotoxicity plates for Day 2 experiment: trypsinize NCI-28H cells (T-75 flask, passage 12): • Remove old medium, wash cells with 7 ml DPBS, remove DPBS, add 2 ml trypsin, incubate plates for 1-2′, when cells detached add 6 ml fresh medium, mix cells and medium. • Count cells under the microscope using the glass slide. […] If we need 200 wells, in each well will be 5,000 cells in 0.1 ml; so total we need 1,000,000 cells in 20 ml. […] In 50 ml Falcon tube, combine 16.6 ml fresh medium and 3.4 ml cells. Gently mix.
3. […] Final solution is 500 μL of 20 μM.
(§1) 1. Centrifuge tubes at 3200 rpm for 3 min. Take out supernatant.
6. Check the plate and start incubation at 37° C./5% CO2
3. Wash cells 1×300 μL media, remove final wash.

[2] = system: NCI-28H cells; test: Cytotoxicity assay (MTS) of NCI-28H cells: carboplatin, mitomycin, gemcitabine, talc, talc bound to drugs (Example 22); details: for % survival from untreated cells: cells + drug, carboplatin / Average reading: cells + drug, carboplatin / % survival from untreated cells: cells + drug, gemcitabine / Average reading: cells + drug, gemcitabine: NCI-28H cells; for Average reading: cells + drug, carboplatin / Average reading: cells + drug, gemcitabine: absorbance 490 nm
Experimental: Read absorbance (MTS assay) and calculate cells survive rate. Compare survival rate
1. Set up 3 cytotoxicity plates for tomorrow experiment: trypsinize NCI-28H cells (T-75 flask, passage 12): • Remove old medium, wash cells with 7 ml DPBS, remove DPBS, add 2 ml trypsin, incubate plates for 1-2′, when cells detached add 6 ml fresh medium, mix cells and medium. • Count cells under the microscope using the glass slide. […] If we need 200 wells, in each well will be 5,000 cells in 0.1 ml; so total we need 1,000,000 cells in 20 ml.
2. […] Final solution is 500 μL of 500 μM carboplatin.
4. […] Final solution is 500 μL of 200 μM Gemcitabine.
as §1
3. Add 100 μL of each 8 preparations of diluted carboplatin (step 1 and 2) to the proper wells according to a plate layout.
4. Add 100 μL of each 8 preparations of diluted Gemcitabine (step 1, 2, 3) to the proper wells according to a plate layout.
6. Check the plate and start incubation at 37° C./5% CO2.
3. Wash all cells 1×300 μL DPBS, remove final wash.

Compound: N.N.[Cl][Pt][Cl] [cisplatin]
- Average reading: cells + cisplatin ([1]; Cisplatin 0.0013 μM): 1.37
- Average reading: cells + cisplatin ([1]; Cisplatin 0.0064 μM): 1.19
- Average reading: cells + cisplatin ([1]; Cisplatin 0.8 μM): 1.23
- Average reading: cells + cisplatin ([1]; Cisplatin 4 μM): 1.18
- Average reading: cells + cisplatin ([1]; Cisplatin 20 μM): 0.48
- Average reading: cells + cisplatin ([1]; Cisplatin 100 μM): 0.59
- % survival from untreated cells (cells + cisplatin) ([1]; cisplatin 0.0013 (μM per Table 64)): 91.07%
- % survival from untreated cells (cells + cisplatin) ([1]; cisplatin 0.0064 (μM per Table 64)): 79.21%
- % survival from untreated cells (cells + cisplatin) ([1]; cisplatin 0.032 (μM per Table 64)): 76.66%
- % survival from untreated cells (cells + cisplatin) ([1]; cisplatin 0.16 (μM per Table 64)): 79.74%
- % survival from untreated cells (cells + cisplatin) ([1]; cisplatin 0.8 (μM per Table 64)): 82.09%
- % survival from untreated cells (cells + cisplatin) ([1]; cisplatin 4 (μM per Table 64)): 78.41%
- % survival from untreated cells (cells + cisplatin) ([1]; cisplatin 20 (μM per Table 64)): 31.99%
- % survival from untreated cells (cells + cisplatin) ([1]; cisplatin 100 (μM per Table 64)): 39.35%

Compound: COc1cccc2c1C(=O)c1c(O)c3c(c(O)c1C2=O)C[C@@](O)(C(=O)CO)C[C@@H]3O[C@H]1C[C@H](N)[C@H](O)[C@H](C)O1 [Dox]
- % survival from untreated by DOX cells ([1]; Dox 0.064 nM): 86.3%
- % survival from untreated by DOX cells ([1]; Dox 8 nM): 83.4%
- % survival from untreated by DOX cells ([1]; Dox 40 nM): 77.4%
- % survival from untreated by DOX cells ([1]; Dox 200 nM): 65.0%
- % survival from untreated by DOX cells ([1]; Dox 1000 nM): 48.6%
- % survival from untreated by DOX cells ([1]; Dox 5000 nM): 46.2%

Compound: N.N.O=C([O-])C1(C(=O)[O-])CCC1.[Pt+2] [carboplatin]
- % survival from untreated cells: cells + drug, carboplatin ([2]; carboplatin 0.006 μM): 90.84% and 94.28%
- Average reading: cells + drug, carboplatin ([2]; carboplatin 0.006 μM): 1.504
- % survival from untreated cells: cells + drug, carboplatin ([2]; carboplatin 0.8 μM): 85.98% and 87.53%
- Average reading: cells + drug, carboplatin ([2]; carboplatin 0.8 μM): 1.4238
- % survival from untreated cells: cells + drug, carboplatin ([2]; carboplatin 4 μM): 96.93% and 93.62%
- Average reading: cells + drug, carboplatin ([2]; carboplatin 4 μM): 1.605
- % survival from untreated cells: cells + drug, carboplatin ([2]; carboplatin 20 μM): 104.81% and 99.20%
- Average reading: cells + drug, carboplatin ([2]; carboplatin 20 μM): 1.7355
- % survival from untreated cells: cells + drug, carboplatin ([2]; carboplatin 100 μM): 83.82% and 79.53%
- Average reading: cells + drug, carboplatin ([2]; carboplatin 100 μM): 1.388
- % survival from untreated cells: cells + drug, carboplatin ([2]; carboplatin 500 μM): 37.38% and 35.14%
- Average reading: cells + drug, carboplatin ([2]; carboplatin 500 μM): 0.6189

Compound: Nc1ccn([C@@H]2O[C@H](CO)[C@@H](O)C2(F)F)c(=O)n1 [gemcitabine]
- cytotoxic effect on NCI-28H cells (comparison) [2]: clear cytotoxic effect
- % survival from untreated cells: cells + drug, gemcitabine ([2]; gemcitabine 0.0026 μM): 114.61%
- Average reading: cells + drug, gemcitabine ([2]; gemcitabine 0.0026 μM): 2.034
- % survival from untreated cells: cells + drug, gemcitabine ([2]; gemcitabine 0.013 μM): 107.85%
- Average reading: cells + drug, gemcitabine ([2]; gemcitabine 0.013 μM): 1.914
- % survival from untreated cells: cells + drug, gemcitabine ([2]; gemcitabine 0.064 μM): 80.60%
- Average reading: cells + drug, gemcitabine ([2]; gemcitabine 0.064 μM): 1.43
- % survival from untreated cells: cells + drug, gemcitabine ([2]; gemcitabine 8 μM): 56.58%
- Average reading: cells + drug, gemcitabine ([2]; gemcitabine 8 μM): 1.004
- % survival from untreated cells: cells + drug, gemcitabine ([2]; gemcitabine 40 μM): 60.09%
- Average reading: cells + drug, gemcitabine ([2]; gemcitabine 40 μM): 1.0663
- % survival from untreated cells: cells + drug, gemcitabine ([2]; gemcitabine 200 μM): 52.70%
- Average reading: cells + drug, gemcitabine ([2]; gemcitabine 200 μM): 0.9352

Compound: COc1cccc2c1C(=O)c1c(O)c3c(c(O)c1C2=O)C[C@@](O)(C(=O)CO)C[C@@H]3O[C@H]1C[C@H](N)[C@H](O)[C@H](C)O1 [DOX]
- % survival NCI-28H cells after different treatment (compare to untreated cells) ([1]; 125 nM DOX): 70%
- AVERAGE: cells + DOX ([1]; DOX 0.000064 μM): 1.18
- AVERAGE: cells + DOX ([1]; DOX 0.2 μM): 0.89
- AVERAGE: cells + DOX ([1]; DOX 1 μM): 0.67
- AVERAGE: cells + DOX ([1]; DOX 5 μM): 0.63

Compound: talc
- cytotoxic effect on NCI-28H cells (comparison) [2]: clear cytotoxic effect
